# From PubChem BioAssay (NCI)
#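 Grown in 96-well plates, cells were treated for 48 hours with each compound at five concentrations. Insufficient inhibition: endpoint recorded as highest concentration tested. Here, GI50 denotes the concentration required for 50% inhibition of growth. TGI denotes the concentration required for complete inhibition of growth.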
# Assays:
# Assay in all cases: DTP human tumour cell line panel, 48 h
# [1] = tested on: NCI-H460 lung
# [2] = tested on: NCI-H226 lung
# [3] = tested on: HCT-116 colon
# [4] = tested on: TK-10 renal
# [5] = tested on: SW-620 colon
# [6] = tested on: 786-0 renal
# [7] = tested on: SK-MEL-2 melanoma
# [8] = tested on: SK-OV-3 ovarian
# [9] = tested on: M19-MEL melanoma
# [10] = tested on: LOX IMVI melanoma
# [11] = tested on: SN12C renal
# [12] = tested on: HL-60(TB) leukemia
# [13] = tested on: KM20L2 colon
# [14] = tested on: OVCAR-8 ovarian
# [15] = tested on: COLO 205 colon
# [16] = tested on: HOP-62 NSCLC
# [17] = tested on: NCI-H23 lung
# [18] = tested on: SF-295 CNS
# [19] = tested on: LXFL 529 NSCLC
# [20] = tested on: M14 melanoma
# [21] = tested on: KM12 colon
# [22] = tested on: ACHN renal
# [23] = tested on: SF-539 CNS
# [24] = tested on: IGROV1 ovarian
# [25] = tested on: A498 renal
# [26] = tested on: A549 NSCLC
# [27] = tested on: EKVX NSCLC
# [28] = tested on: SK-MEL-28 melanoma
# [29] = tested on: SF-268 CNS
# [30] = tested on: K-562 leukemia
# [31] = tested on: HOP-18 NSCLC
# [32] = tested on: U251 CNS
# [33] = tested on: SNB-19 CNS
# [34] = tested on: UACC-257 melanoma
# [35] = tested on: MALME-3M melanoma
# [36] = tested on: CCRF-CEM leukemia
# [37] = tested on: SK-MEL-5 melanoma
# [38] = tested on: DLD-1 colon
# [39] = tested on: DMS 273 small cell lung
# [40] = tested on: RPMI-8226 leukemia
# [41] = tested on: MOLT-4 leukemia
# [42] = tested on: OVCAR-3 ovarian
# [43] = tested on: UO-31 renal
# [44] = tested on: OVCAR-5 ovarian
# [45] = tested on: HCC-2998 colon
# [46] = tested on: HCT-15 colon
# [47] = tested on: HT29 colon
# [48] = tested on: NCI-H522 lung
# [49] = tested on: OVCAR-4 ovarian
# [50] = tested on: UACC-62 melanoma
# [51] = tested on: RXF 393 renal
# [52] = tested on: CAKI-1 renal
# [53] = tested on: SNB-78 CNS
# [54] = tested on: SNB-75 CNS
smiles,measurement,setting,value
NC1CCCCC1N.O=C([O-])c1cc(S(=O)(=O)Nc2cc(S(=O)(=O)[O-])cc3cc(S(=O)(=O)[O-])cc(O)c23)ccc1[O-].[Pt+4],GI50,[1],41.8 µM
same,TGI,[1],> 100 µM
same,GI50,[2],> 100 µM
same,TGI,[2],> 100 µM
same,GI50,[3],> 100 µM
same,TGI,[3],> 100 µM
same,GI50,[4],> 100 µM
same,TGI,[4],> 100 µM
same,GI50,[5],> 100 µM
same,TGI,[5],> 100 µM
same,GI50,[6],> 100 µM
same,TGI,[6],> 100 µM
same,GI50,[7],> 100 µM
same,TGI,[7],> 100 µM
same,GI50,[8],> 100 µM
same,TGI,[8],> 100 µM
same,GI50,[9],> 100 µM
same,TGI,[9],> 100 µM
same,GI50,[10],> 100 µM
same,TGI,[10],> 100 µM
same,GI50,[11],> 100 µM
same,TGI,[11],> 100 µM
same,GI50,[12],89.8 µM
same,TGI,[12],> 100 µM
same,GI50,[13],> 100 µM
same,TGI,[13],> 100 µM
same,GI50,[14],> 100 µM
same,TGI,[14],> 100 µM
same,GI50,[15],> 100 µM
same,TGI,[15],> 100 µM
same,GI50,[16],> 100 µM
same,TGI,[16],> 100 µM
same,GI50,[17],> 100 µM
same,TGI,[17],> 100 µM
same,GI50,[18],> 100 µM
same,TGI,[18],> 100 µM
same,GI50,[19],> 100 µM
same,TGI,[19],> 100 µM
same,GI50,[20],> 100 µM
same,TGI,[20],> 100 µM
same,GI50,[21],> 100 µM
same,TGI,[21],> 100 µM
same,GI50,[22],> 100 µM
same,TGI,[22],> 100 µM
same,GI50,[23],> 100 µM
same,TGI,[23],> 100 µM
same,GI50,[24],> 100 µM
same,TGI,[24],> 100 µM
same,GI50,[25],> 100 µM
same,TGI,[25],> 100 µM
same,GI50,[26],61.6 µM
same,TGI,[26],> 100 µM
same,GI50,[27],> 100 µM
same,TGI,[27],> 100 µM
same,GI50,[28],> 100 µM
same,TGI,[28],> 100 µM
same,GI50,[29],> 100 µM
same,TGI,[29],> 100 µM
same,GI50,[30],> 100 µM
same,TGI,[30],> 100 µM
same,GI50,[31],> 100 µM
same,TGI,[31],> 100 µM
same,GI50,[32],> 100 µM
same,TGI,[32],> 100 µM
same,GI50,[33],> 100 µM
same,TGI,[33],> 100 µM
same,GI50,[34],> 100 µM
same,TGI,[34],> 100 µM
same,GI50,[35],63.5 µM
same,TGI,[35],> 100 µM
same,GI50,[36],> 100 µM
same,TGI,[36],> 100 µM
same,GI50,[37],88.7 µM
same,TGI,[37],> 100 µM
same,GI50,[38],> 100 µM
same,TGI,[38],> 100 µM
same,GI50,[39],> 100 µM
same,TGI,[39],> 100 µM
same,GI50,[40],89.5 µM
same,TGI,[40],> 100 µM
same,GI50,[41],> 100 µM
same,TGI,[41],> 100 µM
same,GI50,[42],> 100 µM
same,TGI,[42],> 100 µM
same,GI50,[43],> 100 µM
same,TGI,[43],> 100 µM
same,GI50,[44],> 100 µM
same,TGI,[44],> 100 µM
same,GI50,[45],> 100 µM
same,TGI,[45],> 100 µM
same,GI50,[46],> 100 µM
same,TGI,[46],> 100 µM
same,GI50,[47],> 100 µM
same,TGI,[47],> 100 µM
same,GI50,[48],> 100 µM
same,TGI,[48],> 100 µM
same,GI50,[49],> 100 µM
same,TGI,[49],> 100 µM
same,GI50,[50],> 100 µM
same,TGI,[50],> 100 µM
same,GI50,[51],> 100 µM
same,TGI,[51],> 100 µM
same,GI50,[52],> 100 µM
same,TGI,[52],> 100 µM
same,GI50,[53],> 100 µM
same,TGI,[53],> 100 µM
same,GI50,[54],> 100 µM
same,TGI,[54],> 100 µM
